This note sets out measurements from ChEMBL document CHEMBL1201862, “PubChem BioAssay data set” (2004).

By EC50 is commonly meant the concentration at which the effect is half-maximal. What is called CC50 is the concentration at which the toxic effect on the cells reaches its halfway point. For orientation: AC50 means the midpoint of the concentration-response curve, whichever way the signal moves.

One series addresses Kallikrein-7 (Homo sapiens, UniProt P49862). Put plainly: Fluorescence Intensity-based biochemical primary high throughput dose response assay to identify activators of kallikrein-7 (K7) zymogen.
Series [1] is described as follows: Vero E6 cell cytotoxicity, dose response, cytotoxicity control for non-replicating M. tuberculosis project, secondary assay (AID 492998). To be noted: Vero C1008. The class given is functional, VeroE6.
The nature of a further series: cells. The series is classed as functional.
For another series, the target named is Cytochrome P450 3A4 (Homo sapiens, UniProt P08684).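 Also: CYP3A4 tested as one member of a cytochrome P450 panel screen.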
The target in series [2] is T1, COUP transcription factor 2 (Homo sapiens, UniProt P24468).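 Also: HEK293 cells transiently cotransfected with COUP-TFII expression vector and reporter; luciferase reporter luminescence driven by COUP-TFII from the pX2-168 reporter plasmid.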
T1 sequence (P24468 whole entry): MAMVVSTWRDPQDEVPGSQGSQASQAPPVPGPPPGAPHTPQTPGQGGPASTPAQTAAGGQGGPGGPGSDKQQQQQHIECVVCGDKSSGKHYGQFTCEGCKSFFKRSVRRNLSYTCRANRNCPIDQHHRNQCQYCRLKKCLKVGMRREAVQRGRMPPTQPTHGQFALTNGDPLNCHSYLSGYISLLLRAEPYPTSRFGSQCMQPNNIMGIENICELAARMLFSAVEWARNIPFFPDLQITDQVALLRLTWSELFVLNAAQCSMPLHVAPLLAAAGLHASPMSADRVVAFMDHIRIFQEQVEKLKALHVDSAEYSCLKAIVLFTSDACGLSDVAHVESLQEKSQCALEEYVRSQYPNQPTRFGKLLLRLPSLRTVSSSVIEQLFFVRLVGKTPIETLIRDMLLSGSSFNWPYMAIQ
In words: Luminescence-based cell-based high throughput dose response assay to identify inhibitors of COUP-TFII (NR2F2). The class given is functional.

Series [3] has as its system HEK293. Put plainly: NOD2 signaling inhibitors in MDP-stimulated cells, cell-based, uHTS, luminescence (AID 2001). The class given is functional. As to conditions: Homo sapiens.
Series [4] in a line: control 3'UTR Renilla luciferase suppression, dose response, counter-screen for Shn3 inhibitor project, cell-based, Clone20-Shn3RL, cherry-picked (AID 624133). The series is classed as functional. Background: Counterscreens check selectivity or assay interference.
A short description of series [5]: HepG2 cell cytotoxicity, dose response, cytotoxicity control for Shn3 inhibitor project, CellTiter-Glo, cherry-picked (AID 624134). The class given is functional, cell-based. On the technique in general: ATP-based viability assays read luminescence as a measure of living cells.
Series [6] has as its system HEK293. Put plainly: cells. The series is classed as functional, cell-based. As to conditions: Homo sapiens.
Series [7] deals with HEK293. Put plainly: cells. The series is classed as functional, cell-based. To be noted: Homo sapiens. This is another data set of the same source.
The nature of series [8]: Shn3 3'UTR reporter inhibitors, dose response, cell-based, Clone20 osteoblasts, firefly luciferase, cherry-picked (AID 624132).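 Also: firefly luciferase luminescence from reporter carrying the Shn3 3'UTR in osteoblasts.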 The class given is functional.
Series [9] deals with HEK293. Put plainly: NOD1 signaling inhibitors, primary screen, cell-based, luminescence, uHTS (AID 1578). As to conditions: Homo sapiens. The series is classed as functional.
The target of series [10] is T2, Polyadenylate-binding protein 1 (Homo sapiens, UniProt P11940). In words: PABP1 MLLE–PAM2 binding inhibitor potency, dose response, biochemical, fluorescence polarization, FITC-PAM2 peptide (AID 602259). The class given is functional. To be noted: read-out: IC50_Mean. (In fluorescence polarisation assays a small probe gives low polarisation when free and higher when bound to something large.)

Series [11] addresses T3, Mannose-6-phosphate isomerase (Homo sapiens, UniProt P34949).
T3 sequence (P34949 whole entry): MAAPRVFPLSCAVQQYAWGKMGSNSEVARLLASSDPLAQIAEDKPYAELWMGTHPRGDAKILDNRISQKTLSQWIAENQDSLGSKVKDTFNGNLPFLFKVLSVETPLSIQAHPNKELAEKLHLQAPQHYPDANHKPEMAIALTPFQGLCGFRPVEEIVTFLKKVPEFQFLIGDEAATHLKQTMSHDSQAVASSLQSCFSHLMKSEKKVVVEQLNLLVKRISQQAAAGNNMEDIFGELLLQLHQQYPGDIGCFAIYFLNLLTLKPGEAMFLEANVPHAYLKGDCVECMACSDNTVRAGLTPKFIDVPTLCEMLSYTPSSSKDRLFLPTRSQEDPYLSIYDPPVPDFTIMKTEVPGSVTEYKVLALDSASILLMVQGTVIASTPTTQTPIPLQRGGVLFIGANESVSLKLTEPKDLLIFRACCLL
Put plainly: human PMI inhibitors, high substrate, primary screen, biochemical, fluorescence intensity, high mannose 6-phosphate (AID 1220).

In series [12] the target is T2, Polyadenylate-binding protein 1. In words: PABP1 MLLE–PAM2 interaction inhibitors, dose response, miRNA deadenylation inhibitor project, biochemical, fluorescence polarization, Cy5-PAM2 peptide, secondary (AID 602260). The series is classed as functional. To be noted: read-out: IC50_Mean.
The next series addresses Prothrombin (Homo sapiens, UniProt P00734). Put plainly: Thrombin 1536 HTS Dose Response Confirmation. [Related pubchem assays: 1046 (Thrombin 1536 HTS; hits were confirmed in this assay)]. The series is classed as functional.
Series [13] in a line: growth suppression of beta-catenin-knockout colon cells, dose response, cell-based, HCT116, human colon tumor (AID 1045).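 Also: HCT116 colon tumor cells with beta catenin knocked out; cells exposed to compound for 60 hours.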 The series is classed as functional.
The nature of series [14]: growth suppression of PTEN-null colon cells, dose response, cell-based, HCT116 PTEN knockout (AID 1047).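 Also: HCT116 colon tumor cells with PTEN knocked out; cells exposed to compound for 60 hours before readout; potency for loss of cell viability measured by luminescence.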 The series is classed as functional.
Series [15] in a line: cytotoxicity in HEK-293T cells, dose response, cytotoxicity control for TCR NF-kB inhibitor project, luminescence, T-cell screen hits (AID 489026).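 Also: cells exposed to compound about 14 hours before the viability readout.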 The class given is functional, cell-based.
Series [16] can be described thus: inhibitors of intracellular T. cruzi replication, confirmation, NIH3T3 host cells, beta-gal luminescence (AID 2044).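 Also: intracellular parasites grown in NIH/3T3 mouse fibroblasts as host cells; luminescent beta-galactosidase reporter signal from transgenic T. cruzi replicating inside host cells; inhibitors lower the luminescence signal.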 The class given is functional, cell-based.
The nature of series [17]: cytotoxicity toward NIH3T3 fibroblasts, dose response, counter-screen, cell-based, ATP luminescence, mouse fibroblasts (AID 2010).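 Also: cells exposed to compound for about 90 hours before reading.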 The series is classed as functional.
The target in series [18] is Peroxisome proliferator-activated receptor gamma/Nuclear receptor coactivator 3 (Homo sapiens, UniProt P37231). Put plainly: TR-FRET dose response biochemical High Throughput Screening assay for agonists of the steroid receptor coactivator 3 (SRC-3) recruitment by the peroxisome proliferator-activated receptor gamma (PPAR gamma): non-selective agonists. [Related pubchem assays: 1301 (Confirmation screen.), 1048 (Primary screen.)]. The class given is functional.

The target in series [19] is Peroxisome proliferator-activated receptor gamma/Nuclear receptor coactivator 2 (Homo sapiens, UniProt P37231). Put plainly: TR-FRET dose response biochemical High Throughput Screening assay for agonists of the steroid receptor coactivator 2 (SRC-2) recruitment by the peroxisome proliferator-activated receptor gamma (PPAR gamma): non-selective agonists. [Related pubchem assays: 1297, 1032 ]. The class given is functional.

The target of series [20] is Peroxisome proliferator-activated receptor gamma/Nuclear receptor coactivator 1 (Homo sapiens, UniProt P37231). In words: TR-FRET dose response biochemical High Throughput Screening assay for agonists of the steroid receptor coactivator 1 (SRC-1) recruitment by the peroxisome proliferator-activated receptor gamma (PPAR gamma): non-selective agonists. [Related pubchem assays (depositor defined):AID1300, AID1808, AID504735, AID631]. The series is classed as protein assay.

The test system of another series is INS1. Put plainly: beta cell apoptosis inhibitors, cytokine rescue, dose response, luminescence, retest (AID 449756).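 Also: cell death triggered by IL-1 beta plus TNF-alpha plus IFN-gamma mixture; protective hits raise ATP signal compared with cytokine alone wells.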 The series is classed as functional, cell-based. To be noted: Rattus norvegicus.
The nature of series [21]: A Cell Based Secondary Assay To Explore Cytotoxicity of Compounds that Sensitize Mycobacterium Tuberculosis to Beta-Lactam Antibiotics. The series is classed as functional.
Series [22] in a line: inhibitors of SNCA 5'UTR-driven reporter translation, confirmation, H4 neuroglioma cells, luminescence (AID 1988). The class given is functional, cell-based.
The nature of series [23]: inhibitors of firefly luciferase expression or activity, dose response, H4 neuroglioma cells, luminescence (AID 1990). The series is classed as functional, cell-based.
A short description of series [24]: Luminescence Cell-Based Dose Response HTS to Identify Inhibitors of 5'UTR Stem-Loop Driven Prion Protein mRNA Translation in H4 Neuroglioblastoma Cells. [Related pubchem assays: 1827 (Project Summary), 1813 (Primary HTS)]. The class given is functional.
Series [25] is described as follows: NIH:OVCAR-3 ovarian cancer cell cytotoxicity, dose response, PAX8 inhibitor project, plate reader, dry powder samples (AID 743044). The class given is functional, cell-based.
The target in another series is Paired box protein Pax-8 (Homo sapiens, UniProt Q06710). In words: inhibitors of PAX8-driven TPO luciferase reporter, dose response, RMG-I cells, cherry-pick (AID 687027).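 Also: luciferase reporter driven by Pax8 target thyroperoxidase promoter measured by SteadyGlo luminescence.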 The class given is functional, cell-based.
Series [26] in a line: IGROV1 ovarian cancer cell cytotoxicity, dose response, PAX8 inhibitor project, plate reader, dry powder samples (AID 743043). The series is classed as functional, cell-based. To be noted: IGROV-1.

Active and inactive are the calls of the source.

T2 sequence (P11940 whole entry): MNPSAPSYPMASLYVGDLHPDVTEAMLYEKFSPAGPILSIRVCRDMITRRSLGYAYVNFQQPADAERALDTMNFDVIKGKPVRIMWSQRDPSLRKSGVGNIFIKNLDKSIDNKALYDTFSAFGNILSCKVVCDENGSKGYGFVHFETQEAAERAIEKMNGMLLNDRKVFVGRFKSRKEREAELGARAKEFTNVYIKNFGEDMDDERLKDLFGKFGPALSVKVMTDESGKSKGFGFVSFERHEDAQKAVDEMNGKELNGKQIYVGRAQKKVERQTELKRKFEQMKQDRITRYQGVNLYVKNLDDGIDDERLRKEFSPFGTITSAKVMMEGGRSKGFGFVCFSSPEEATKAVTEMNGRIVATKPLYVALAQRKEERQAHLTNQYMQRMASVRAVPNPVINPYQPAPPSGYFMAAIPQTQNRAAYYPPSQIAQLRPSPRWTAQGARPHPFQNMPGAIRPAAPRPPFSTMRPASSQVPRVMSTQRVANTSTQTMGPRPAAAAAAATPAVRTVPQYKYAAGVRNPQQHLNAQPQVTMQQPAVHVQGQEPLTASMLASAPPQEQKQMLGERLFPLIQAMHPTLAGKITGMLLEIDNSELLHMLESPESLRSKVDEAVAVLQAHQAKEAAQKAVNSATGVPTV
Chain of Kallikrein-7 (P49862 whole entry): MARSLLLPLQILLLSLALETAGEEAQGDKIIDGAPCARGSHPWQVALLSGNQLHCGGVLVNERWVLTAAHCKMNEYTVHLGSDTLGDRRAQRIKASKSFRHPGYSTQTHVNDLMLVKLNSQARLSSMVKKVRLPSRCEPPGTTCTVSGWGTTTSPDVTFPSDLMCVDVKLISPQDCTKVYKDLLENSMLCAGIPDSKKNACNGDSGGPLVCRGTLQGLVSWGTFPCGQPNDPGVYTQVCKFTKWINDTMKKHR
Chain of Peroxisome proliferator-activated receptor gamma/Nuclear receptor coactivator 1 (P37231 whole entry): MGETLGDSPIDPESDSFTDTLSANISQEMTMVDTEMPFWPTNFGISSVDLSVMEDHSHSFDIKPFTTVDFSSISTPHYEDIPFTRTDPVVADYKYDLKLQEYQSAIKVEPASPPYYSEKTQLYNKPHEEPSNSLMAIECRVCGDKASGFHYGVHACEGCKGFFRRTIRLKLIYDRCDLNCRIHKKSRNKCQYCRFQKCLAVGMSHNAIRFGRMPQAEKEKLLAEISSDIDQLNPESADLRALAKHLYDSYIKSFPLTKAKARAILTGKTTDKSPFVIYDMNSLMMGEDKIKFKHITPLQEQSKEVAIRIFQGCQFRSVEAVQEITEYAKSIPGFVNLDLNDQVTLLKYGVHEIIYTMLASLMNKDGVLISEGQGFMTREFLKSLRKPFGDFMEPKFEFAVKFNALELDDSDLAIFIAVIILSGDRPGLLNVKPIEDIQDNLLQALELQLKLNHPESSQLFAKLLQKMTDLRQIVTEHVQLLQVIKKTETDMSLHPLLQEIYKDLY
Chain of Peroxisome proliferator-activated receptor gamma/Nuclear receptor coactivator 1 (Q15788 whole entry, further chain): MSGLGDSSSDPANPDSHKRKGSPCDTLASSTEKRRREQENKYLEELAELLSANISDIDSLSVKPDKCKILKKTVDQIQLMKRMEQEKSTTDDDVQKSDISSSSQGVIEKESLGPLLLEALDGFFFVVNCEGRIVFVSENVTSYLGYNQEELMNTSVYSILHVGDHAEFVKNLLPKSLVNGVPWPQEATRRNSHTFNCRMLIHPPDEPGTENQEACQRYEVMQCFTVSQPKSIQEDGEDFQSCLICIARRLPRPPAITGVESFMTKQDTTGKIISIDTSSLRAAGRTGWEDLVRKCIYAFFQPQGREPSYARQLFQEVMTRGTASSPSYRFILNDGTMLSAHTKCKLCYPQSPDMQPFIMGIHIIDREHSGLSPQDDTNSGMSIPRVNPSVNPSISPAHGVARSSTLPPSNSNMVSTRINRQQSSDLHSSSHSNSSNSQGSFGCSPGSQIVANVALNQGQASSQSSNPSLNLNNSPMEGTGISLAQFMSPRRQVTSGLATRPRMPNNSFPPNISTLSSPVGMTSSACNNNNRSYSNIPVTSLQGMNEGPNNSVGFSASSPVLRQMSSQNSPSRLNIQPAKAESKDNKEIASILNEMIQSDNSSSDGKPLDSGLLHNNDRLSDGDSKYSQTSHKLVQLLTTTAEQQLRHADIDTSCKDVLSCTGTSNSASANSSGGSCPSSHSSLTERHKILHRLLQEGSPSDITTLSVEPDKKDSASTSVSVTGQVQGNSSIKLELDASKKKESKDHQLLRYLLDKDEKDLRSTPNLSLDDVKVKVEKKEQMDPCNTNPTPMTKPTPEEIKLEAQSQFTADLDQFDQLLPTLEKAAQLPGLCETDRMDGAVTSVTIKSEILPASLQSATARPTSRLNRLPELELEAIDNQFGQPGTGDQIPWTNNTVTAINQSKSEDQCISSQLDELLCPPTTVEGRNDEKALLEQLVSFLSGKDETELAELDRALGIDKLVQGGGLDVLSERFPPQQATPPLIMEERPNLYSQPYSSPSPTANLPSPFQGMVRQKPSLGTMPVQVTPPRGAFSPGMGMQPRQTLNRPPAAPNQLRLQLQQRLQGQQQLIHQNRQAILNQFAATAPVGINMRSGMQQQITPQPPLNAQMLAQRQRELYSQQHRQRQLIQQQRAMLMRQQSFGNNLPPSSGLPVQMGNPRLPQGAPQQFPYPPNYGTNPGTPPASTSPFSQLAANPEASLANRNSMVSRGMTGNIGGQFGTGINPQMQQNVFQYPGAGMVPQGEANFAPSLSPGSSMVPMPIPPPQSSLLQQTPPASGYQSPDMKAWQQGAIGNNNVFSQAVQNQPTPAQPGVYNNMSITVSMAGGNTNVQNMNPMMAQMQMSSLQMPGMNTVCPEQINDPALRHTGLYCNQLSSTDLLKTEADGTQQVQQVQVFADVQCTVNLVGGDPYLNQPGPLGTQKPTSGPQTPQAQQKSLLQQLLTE
Chain of Peroxisome proliferator-activated receptor gamma/Nuclear receptor coactivator 2 (P37231 whole entry): as the sequence (P37231 whole entry) above
Chain of Peroxisome proliferator-activated receptor gamma/Nuclear receptor coactivator 2 (Q15596 whole entry, further chain): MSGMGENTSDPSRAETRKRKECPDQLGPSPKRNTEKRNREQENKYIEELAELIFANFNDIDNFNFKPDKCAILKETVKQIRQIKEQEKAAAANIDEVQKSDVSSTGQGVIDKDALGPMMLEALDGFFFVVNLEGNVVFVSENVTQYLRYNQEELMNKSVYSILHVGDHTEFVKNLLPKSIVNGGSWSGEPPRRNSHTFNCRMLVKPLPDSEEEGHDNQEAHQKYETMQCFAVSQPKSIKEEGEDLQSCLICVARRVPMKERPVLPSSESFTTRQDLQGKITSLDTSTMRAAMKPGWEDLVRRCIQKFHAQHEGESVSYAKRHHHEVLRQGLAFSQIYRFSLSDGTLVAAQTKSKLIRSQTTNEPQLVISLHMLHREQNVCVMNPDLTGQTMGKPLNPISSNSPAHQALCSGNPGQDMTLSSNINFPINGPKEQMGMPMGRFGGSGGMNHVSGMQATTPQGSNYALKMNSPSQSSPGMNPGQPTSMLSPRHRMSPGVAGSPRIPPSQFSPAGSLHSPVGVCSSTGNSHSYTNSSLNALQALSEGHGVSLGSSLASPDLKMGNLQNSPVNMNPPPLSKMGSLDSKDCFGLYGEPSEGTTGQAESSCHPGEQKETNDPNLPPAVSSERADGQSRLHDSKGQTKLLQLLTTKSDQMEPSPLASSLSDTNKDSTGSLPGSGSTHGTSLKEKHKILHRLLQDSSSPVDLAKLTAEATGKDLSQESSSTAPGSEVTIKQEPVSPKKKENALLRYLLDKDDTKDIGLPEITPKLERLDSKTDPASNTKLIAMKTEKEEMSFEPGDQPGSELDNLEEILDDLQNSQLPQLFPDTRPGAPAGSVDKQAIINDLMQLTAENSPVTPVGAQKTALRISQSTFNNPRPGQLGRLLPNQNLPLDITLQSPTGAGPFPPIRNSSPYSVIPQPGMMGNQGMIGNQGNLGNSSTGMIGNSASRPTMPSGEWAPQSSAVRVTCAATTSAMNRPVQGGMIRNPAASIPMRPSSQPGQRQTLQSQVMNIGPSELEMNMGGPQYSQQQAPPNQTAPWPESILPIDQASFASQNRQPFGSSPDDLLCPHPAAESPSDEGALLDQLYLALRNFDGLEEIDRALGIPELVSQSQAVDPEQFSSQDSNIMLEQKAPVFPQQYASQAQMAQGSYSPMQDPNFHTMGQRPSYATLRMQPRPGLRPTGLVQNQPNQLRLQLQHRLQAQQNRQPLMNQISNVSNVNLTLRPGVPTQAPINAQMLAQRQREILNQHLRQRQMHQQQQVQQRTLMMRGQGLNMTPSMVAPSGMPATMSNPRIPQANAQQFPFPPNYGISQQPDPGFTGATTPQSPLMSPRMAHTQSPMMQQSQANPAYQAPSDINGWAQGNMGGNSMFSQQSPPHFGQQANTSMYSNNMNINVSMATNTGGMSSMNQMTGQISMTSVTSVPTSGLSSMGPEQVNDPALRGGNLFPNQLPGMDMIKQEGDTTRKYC

For `CCc1cc2c(CN3CCN(Cc4ccccc4)CC3)cc(=O)oc2cc1O`, the EC50 at Kallikrein-7 is > 69.5 µM (inactive).
As to `CCCn1nnnc1NC(=O)c1cc(Cl)ccc1Cl`, the cytotoxic concentration (CC50) in series [1] is > 20 µM (active). Moreover, the IC50 in the series “cells” was 5.95 µM (active).
Turning to `COc1ccc(C(=O)NC(=S)NCc2ccccc2)cc1`, the AC50 result at Cytochrome P450 3A4 was “inconclusive”.
With `CCCC(=O)Nc1ccc2nn(-c3ccc(OC)cc3)nc2c1`, at Kallikrein-7, the EC50 is > 69.5 µM (inactive).
For the compound `CCN(CC)C(=O)c1oc2ccc(S(=O)(=O)N3CC(C)CC(C)C3)cc2c1C` (stereo not given), the IC50 in series [2] was 8.24 µM (active); with HEK293 [3], 5.18 µM (active); with HEK293 [6] it was > 20 µM (inactive); in the series with HEK293 [7], 4.79 µM (active). The concentration at half-maximal activity (AC50) is 6.58 µM (active) in series [4], 3.55 µM (active) in series [5] and 1.02 µM (active) in [8]. The half-maximal effective concentration (EC50) with HEK293 [9] was 2.78 µM (active).
`CC(=O)N1C(=O)/C(=C2\SC(=S)N(c3c(C)n(C)n(-c4ccccc4)c3=O)C2=O)c2ccccc21`: the IC50 in series [10] was > 66 µM (inactive); in series [11] it was > 50 µM (not active); in series [12], > 66 µM (inactive); at Prothrombin it was 8.97 µM (active).
Take `Cn1nc(CC(=O)Nc2ccc(N3CCN(C(=O)OC(C)(C)C)CC3)cc2)c2ccccc2c1=O`: the IC50 in series [2] is 4.32 µM (active); in series [15], > 80 µM (inactive). The results for the EC50 in series [13] and in [14] were 5.89 µM (active) and 8.04 µM (active), respectively.
Take `Cc1cc2cc(CNC(=O)c3cc4ccccc4o3)ccc2n1C`: the EC50 in [16] is 547 nM (active); in [17], > 60 µM (not active); in [18], 19.2 µM (not active); in series [19], 11.1 µM (not active); in [20], 10.6 µM (inactive).
Take `Oc1ccc(CNc2ccccc2)c2cccnc12`: the IC50 in series [11] is listed as > 50 µM (not active). Also, the half-maximal activity concentration (AC50) with INS1 is 14.4 µM (active).
Regarding `CCOC(=O)/C=c1\s/c(=C\c2c(OC)ccc3ccccc23)c(=O)n1CC(=O)NCC1CCCO1` (stereo not given), the CC50 in series [21] was 12.6 µM (active). Besides, the half-maximal effective concentration (EC50) in series [22] is 8.43 µM (active); in [23], 10.5 µM (active); in [24] it was 12.3 µM (active).
As to `C[C@H]1CCCCO[C@H](CN(C)C(=O)Nc2ccc(C(F)(F)F)cc2)[C@@H](C)CN([C@@H](C)CO)C(=O)c2cc(NC(=O)CCC(F)(F)F)ccc2O1`, the AC50 is 39.9 µM (active) in series [25], 6.57 µM (active) on Paired box protein Pax-8 and 54.7 µM (active) in [26].
